Results taken from US4300557A, “Method for treating intraocular malignancies” (The United States of America as represented by the …, priority 1980, dated 1981).

How the values were obtained:
[1] = Release of BCNU from silicone balloons into water; type: physicochemical
Description: Into one balloon prepared as in Example 1 was injected 0.15 ml. of 1% ethanol containing 0.6 mg. of BCNU and into a second balloon 0.15 ml. of 10% ethanol containing 0.5 mg of BCNU.
Each balloon was placed in a scintillation vial containing 5 ml of water and shaken at 37° C. in an automatic shaker. At specified time intervals, the aqueous liquid was removed from the vials containing the balloons. The amount of BCNU dissolved in the water was determined by spectroscopic analysis (absorbance at 232 nm). The water in each scintillation vessel was replaced with 5 ml. of fresh water. […] Results for both ethanolic solutions were as in FIG. 2. (- - -).
BCNU (7.5 mg/0.15 ml sesame oil) was injected into a silicone balloon which was placed in a flask with 5 ml of distilled water and shaken in an automatic shaker at 37° C. The procedure of Example 3(a) was repeated for as many time as positive absorption at 232 nm was recorded. When the experiment had to be interrupted overnight, the dried silicone balloon containing BCNU in sesame oil was stored at -15° C.
BCNU in absolute ethanol solution (13 mg/0.15 ml, 20 mg/0.15 ml, and 60 mg/0.15 ml) was injected in each of three silicone balloons. Release of BCNU from the balloon was followed as in Example 3. Results of this experiment are shown in FIG. 3, in which (--. --. --.) represents data for the solution containing 13 mg of BCNU, (- - -) the solution containing 20 mg and (--) the solution containing 60 mg. A sharp drop in the BCNU release rate after 3-4 hours, indicated by the arrow in the Figure, is correlated with diffusion of all of the ETOH from the balloons.

[2] = tested on: E. coli; test: Microbiological assay of BCNU: inhibition of E. coli in agar plates; type: cell-based
Description: BCNU activity was evaluated by placing a silicone balloon containing BCNU in 0.2 ml of ethanol in a gelled agar plate seeded with E. coli (10^6 colonies/ml). The balloon was covered with a layer of seeded agar. The culture was incubated overnight at 35° C. and the zone of inhibition was measured. The balloons were transferred daily to new plates and the procedure repeated as long as activity was detected. The diameters of the zones of inhibition were compared with a standard semilogarythmic plot obtained using known amount of BCNU absorbed in filter paper about the size of the balloons. […] In control experiments with balloons filled with 0.2 ml of ethanol no inhibition of E. coli was observed. After a single overnight incubation, all of the alcohol had diffused from the balloon.
The smaller zone was very clear, and probably totally free of bacterial growth. The larger one was distinct, but had some diffuse bacterial growth. […] The microbiological assay is a useful test of cytotoxic activity of the implants, but the results are only semiquantitative, owing to simultaneous decomposition and diffusion of BCNU.
A 10 mg sample of solid was placed in a 7-mm-diameter reservoir made of two silicone membranes (0.1 mm thick) separated by a silicone rubber ring spacer (1.0 mm wide×1.5 mm thick) and glued with silicone adhesive. The sandwich-type silicone device containing 10 mg of solid BCNU was imbedded in agar plates seeded with E. coli and incubated repeatedly as in Example 5(a).

[3] = cited from earlier work

For O=NN(CCCl)C(=O)NCCCl [BCNU, 1,3-bis-(2-chloroethyl)-1-nitrosourea], the “rate of BCNU release from silicone balloons into water” value ([1]; 1% or 10% ethanol, 37° C.) was “rapidly decreasing rate”, the “BCNU release rate after alcohol depletion, comparison of the three balloons” value ([1]; 13, 20 and 60 mg/0.15 ml absolute ethanol) was “about the same for the three balloons” and the “depletion of BCNU from silicone microballoons” value ([1]; BCNU in sesame oil) was “depleted rather rapidly”. For the same compound, the “rate of BCNU release from silicone microballoons into water” value ([1]; BCNU in sesame oil, 37° C.) was “variable rate”, the “BCNU remaining inside balloons after alcohol depletion” value ([1]; absolute ethanol) was “essentially pure BCNU remained inside the balloons” and the “time of sharp drop in the BCNU release rate” value ([1]; absolute ethanol, 13, 20 and 60 mg/0.15 ml, 37° C.) was 3 to 4 h. The “rate of BCNU diffusion from balloon into water after alcohol depletion” value ([1]; absolute ethanol, after the alcohol has left) was “relatively constant rate”, the “duration of BCNU release” value ([1]; balloon containing the largest amount (60 mg/0.15 ml absolute ethanol)) was “released it over the longest time” and the “depletion of drug activity, solid BCNU in sandwich-type silicone device” value ([2]; 10 mg solid BCNU versus 10 mg BCNU in 0.2 ml ethanol in balloon) was “depletion of drug activity similar to that obtained with 10 mg BCNU in 0.2 ml ethanol in a silicone balloon”. The “activity in the seventh incubation” value ([2]; 30 and 40 mg BCNU in 0.2 ml ethanol) was “zero activity”, the “activity in consecutive incubations” value ([2]; 30 and 40 mg BCNU in 0.2 ml ethanol, daily incubations at 35° C.) was “comparable activity for six consecutive incubations” and the “duration of inhibition of growth of E. coli cultures” value ([2]; 30 or 40 mg BCNU in ethanol, silicone microballoons) was 6 days. The zones of inhibition ([2]; BCNU in 0.2 ml ethanol, balloons, overnight 35° C.) was “two concentric and distinct zones of inhibition”, the “BCNU remaining inside balloons after first incubation in agar” value ([2]; BCNU in ethanol) was “essentially pure BCNU remains inside the balloons” and the “BCNU content of balloons after first night's incubation” value ([2]; BCNU in ethanol, after first overnight incubation) was ~100%. The “inhibitory activity versus filter paper impregnated with known amounts of BCNU” value ([2]; ethanolic solutions in silicone microballoons) was “unimpaired” and the “degradation in aqueous media” value [3] was “degrades rapidly in aqueous media”.
